Key:
αvβ3 and αvβ5 integrin = assay: comparison of the αvβ3 and αvβ5 integrin antagonist peptidomimetic with an αvβ3 integrin peptide in nude mice, same chelator and radionuclide; type: in vivo; conditions: versus αvβ3 integrin peptide
Description: Embodiments of the present invention also utilize the therapeutic compounds of the invention in conjunction with a diagnostic. Compounds containing αvβ3/αvβ5 anti-integrin antagonist peptidomimetic, displaying a selective affinity for the HER2+ protein, vitronectin, fibronectin, tenascin, reelin, kindlin, talin or combination thereof for the diagnosis or prognosis of disorders using PET, SPECT and MRI or combinations by administering an effective amount of activity thereof to a subject, particularly for the diagnosis of diseases related to metastasis and angiogenesis such as breast cancer, lung cancer, ovarian cancer, gastric cancer, esophageal cancer, blood borne cancers, musculoskeletal tumors, melanoma, head and neck cancer, human glioma, cervical cancer, vascular restenosis, osteoporosis, rheumatoid arthritis. […] The compounds referred to may be radiotracers for nuclear medicine, such as the Gallium-68 or Fluorine-18, […], Copper-64, or Technetium-99m, covalently bound to a spacer, chelator, directly to the peptidomimetic, to a nanoparticle or to more than one amino acid unit of the peptidomimetic. Other radiotracers are those reported in the publication Radionuclide Peptide Cancer Therapy, edited by M. Chinol and G. Paganelli, Taylor and Francis CRC Press, 2006. […]

HER2+ breast cancer = assay: human PET study versus [18F] Fludeoxyglucose PET scan in an HER2+ breast cancer patient; type: in vivo

4-[2-(3,4,5,6-tetrahydropyrimidine-2-ylamino)ethyloxy]benzoyl-2-[N-(3-aminoneopenta-1-carbamyl)]-aminoethylsulfonyl-amino-β-alanine [integrin antagonist peptidomimetic]
affinity for the targeted organs relative to the comparator αvβ3 integrin peptide (αvβ3 and αvβ5 integrin): three to seven times better
tumors distant from the primary detected (HER2+ breast cancer): 25 tumors
